# Source: US6514955B1, “Multi-faceted method to repress reproduction of latent viruses in humans and animals” (HIV Diagnostics, Inc., priority 1993, dated 2003)
# Legend:
# [1] = cited from earlier work
# NADPH oxidase = NADPH oxidase (Homo sapiens, UniProt P04839); conditions: cited from earlier work
# hybridoma macrophages = assay: Oxidant release in LPS or interferon activated hybridoma macrophages; format: cell-based
# Source text: PMA activates the oxidative burst. The oxidant detected is the same oxidant seen in Kupfer liver cells and lung macrophages: peroxynitrite.
# Sequence of NADPH oxidase (P04839 2-570 limits assumed): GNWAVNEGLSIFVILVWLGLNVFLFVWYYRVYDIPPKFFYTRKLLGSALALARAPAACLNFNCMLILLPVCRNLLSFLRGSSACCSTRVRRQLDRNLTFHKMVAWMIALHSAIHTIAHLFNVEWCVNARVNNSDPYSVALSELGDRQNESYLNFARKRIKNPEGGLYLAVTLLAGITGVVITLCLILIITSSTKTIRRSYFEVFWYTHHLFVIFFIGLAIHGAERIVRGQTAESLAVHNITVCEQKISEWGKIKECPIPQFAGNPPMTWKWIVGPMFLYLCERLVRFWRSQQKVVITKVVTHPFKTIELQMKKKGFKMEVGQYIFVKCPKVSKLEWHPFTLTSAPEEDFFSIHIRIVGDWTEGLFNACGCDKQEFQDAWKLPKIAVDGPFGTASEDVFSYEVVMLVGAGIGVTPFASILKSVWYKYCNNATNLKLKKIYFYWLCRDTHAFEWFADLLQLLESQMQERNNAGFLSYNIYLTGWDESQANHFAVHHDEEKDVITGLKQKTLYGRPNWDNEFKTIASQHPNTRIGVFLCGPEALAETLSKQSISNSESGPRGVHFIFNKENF
# Sequence of NADPH oxidase (P13498 2-195 partner limits assumed): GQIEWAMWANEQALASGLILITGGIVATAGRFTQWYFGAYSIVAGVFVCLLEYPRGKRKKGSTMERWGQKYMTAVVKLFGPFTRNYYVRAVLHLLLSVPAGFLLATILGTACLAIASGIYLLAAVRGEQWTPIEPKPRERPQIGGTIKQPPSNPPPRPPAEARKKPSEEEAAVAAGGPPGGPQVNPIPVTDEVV
structure (smiles),measurement,setting,value
O=C1NC(C(=O)O)CS1 (stereo not shown) [2-oxo-4-thiazolidene carboxylic acid],Oral doses administered without toxicity,"[1]; in vivo, po",0.15 to 0.45 mmol/kg
CC(=O)N[C@@H](CS)C(=O)O [N-acetyl cysteine],Daily dose usable without toxic side effects,"[1]; man, daily",Up to 40 mg per kilogram of body weight
c1ccc2c(c1)[I+]c1ccccc1-2 [diphenylene iodonium],Concentration printed for NADPH oxidase inhibitor,NADPH oxidase,15 nM
CCCCCCCCCCCCCC(=O)O[C@@H]1[C@@H](C)[C@@]2(O)[C@@H](C=C(CO)C[C@]3(O)C(=O)C(C)=C[C@@H]23)[C@@H]2C(C)(C)[C@]12OC(C)=O [phorbol myristate acetate],Stimulation of oxidant (peroxynitrite) produced,hybridoma macrophages,about 40 fold
